Measurements: patent US5378706A, “Fused-thiazole derivatives active on the cholinergic system, and pharmaceutical compositions containing same” (Sanofi, priority 1987, dated 1995)
Like-named read-outs stand apart in the source and are kept apart here.

Experiments:
[1] = system: M1 central muscarinic cholinergic receptors; experiment: Antagonism of rotations induced by intrastriatal injection of pirenzepine in mice; type: in vivo, mice (Swiss, CD 1); conditions: for Pirenzepine antagonism ED50 i.p.: 15 minutes before intrastriatal pirenzepine 1 μg; for Pirenzepine antagonism ED50 p.o.: 30 minutes before intrastriatal pirenzepine 1 μg
Method: Pirenzepine (PZ) is a specific antagonist of the M1 central muscarinic cholinergic receptors. The intrastriatal injection of PZ into mice induces rotatory behavoir. The antagonism of this behavoir by the products according to the invention was studied.
The products according to the invention are administered either intraperitoneally (i.p.) or orally (p.o.) after solubilization in distilled water or suspension in a 5% solution of gum arabic. The control animals receive the pure solvent under the same conditions.
The animals used are female mice (Swiss, CD 1, Charles River, France) with a body weight of between 25 and 30 grams.
The pirenzepine is dissolved in a phosphate buffer and the pH of the solution is 6.
The test products or their solvents are administered in a volume of 0.4 ml per 20 g of body weight, either by i.p. injection or orally via an esophageal tube.
The number of contralateral rotations (rotations in the opposite direction to the side injected) was counted for three 2-minute periods after injection of the pirenzepine: 2nd to 4th, 8th to 10th and 13th to 15th minutes. Each treatment consists of 3 to 4 doses and 10 animals per dose. The total number of rotations and the percentage antagonism with respect to the control group are calculated for each treatment.

[2] = molecular target: T1, M2 -type muscarinic cholinergic receptor (Cavia porcellus, UniProt H0VRN8); experiment: Affinity for the M2-type muscarinic cholinergic receptor, displacement of tritiated N-methylscopolamine (3H-NMS) on smooth guinea-pig ileum muscle homogenate; type: binding
T1 construct: on a smooth guinea-pig ileum muscle homogenate; from tissue; host or cells: guinea-pig ileum smooth muscle homogenate
T1 sequence (H0VRN8 1-466): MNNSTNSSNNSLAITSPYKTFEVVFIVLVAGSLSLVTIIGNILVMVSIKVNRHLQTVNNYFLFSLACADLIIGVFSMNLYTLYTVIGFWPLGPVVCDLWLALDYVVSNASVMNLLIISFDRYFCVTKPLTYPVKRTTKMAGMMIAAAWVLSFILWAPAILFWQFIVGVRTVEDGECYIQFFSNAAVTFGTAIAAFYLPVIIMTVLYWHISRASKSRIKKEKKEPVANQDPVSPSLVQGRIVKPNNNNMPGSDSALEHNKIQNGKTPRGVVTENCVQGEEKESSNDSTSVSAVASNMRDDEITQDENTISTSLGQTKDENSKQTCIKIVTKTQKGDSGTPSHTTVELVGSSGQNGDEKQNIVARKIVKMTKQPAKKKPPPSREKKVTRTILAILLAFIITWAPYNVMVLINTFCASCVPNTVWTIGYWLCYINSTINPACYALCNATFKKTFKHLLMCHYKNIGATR
Method: The M1 -type receptors are concentrated in certain regions of the brain, such as the hippocampus, the cerebral cortex and the striatum, and also in the sympathetic ganglia. These binding sites can be selectively labeled with tritiated pirenzepine (^3 H-PZ). The M2 -type receptors predominate in the heart and the ileum and can be labeled with tritiated N-methyl-scopolamine (^3 H-NMS). The selectivity of the products of the invention with respect to the M1 and M2 sites was determined by studying their in vitro interaction with ^3 H-PZ and ^3 H-NMS firmly bound with a high affinity to rat hippocampus membranes and smooth guinea-pig ileum muscle, respectively.
The interaction with the M2 -type muscarinic receptors was studied by in vitro measurement, on a smooth guinea-pig ileum muscle homogenate, of the displacement of tritiated N-methylscopolamine from its specific binding sites. […] The final volume is 1 ml. The reaction is stopped by centrifugation for 5 minutes at 15,000×g. The non-specific binding is determined in the presence of 10 mM atropine sulfate.
The IC50 for ^3 H-PZ displacement represents the affinity for the M1 receptor; the IC50 for ^3 H-NMS displacement represents the affinity for the M2 receptor.

[3] = molecular target: T2, M1 -type muscarinic cholinergic receptor (Rattus norvegicus, UniProt P08482); experiment: biochemical; type: binding; conditions: for ratio R of the IC50 values for the M1 and M2 receptors: selectivity, values correspond to IC50 M2 / IC50 M1
T2 sequence (P08482 1-460): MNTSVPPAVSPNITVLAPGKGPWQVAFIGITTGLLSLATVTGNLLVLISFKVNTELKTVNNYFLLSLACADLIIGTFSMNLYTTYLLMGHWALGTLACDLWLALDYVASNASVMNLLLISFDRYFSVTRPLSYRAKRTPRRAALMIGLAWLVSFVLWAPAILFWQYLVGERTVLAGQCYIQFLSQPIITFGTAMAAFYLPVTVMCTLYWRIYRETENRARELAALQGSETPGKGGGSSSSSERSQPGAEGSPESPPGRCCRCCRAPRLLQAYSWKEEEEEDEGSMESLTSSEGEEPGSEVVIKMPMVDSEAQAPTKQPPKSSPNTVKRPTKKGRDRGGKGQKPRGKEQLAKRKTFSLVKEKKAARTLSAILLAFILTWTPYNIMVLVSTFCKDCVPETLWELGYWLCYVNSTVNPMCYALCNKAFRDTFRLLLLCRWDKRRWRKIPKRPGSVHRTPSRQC
Method: The interaction of the molecules with the M1 -type muscarinic receptors was studied by in vitro measurement, on a rat hippocampus homogenate, of the displacement of tritiated pirenzepine from its specific binding sites. Aliquots (10 μl) of a 5% (w/v) rat hippocampus homogenate in an Na2 HPO4 buffer (50 mM, pH 7.40) are incubated for 2 hours at 4° C. in the presence of ^3 H-PZ (76 Ci/mmol; final concentration 1 nM) and increasing concentrations of the test product. The final volume is 2 ml. The reaction is stopped by centrifugation for 10 minutes at 50,000×g. After decantation and washing of the residues, the bound radioactivity is counted by liquid scintillation. The non-specific binding is determined in the presence of 10 μM atropine sulfate.

[4] = guinea-pig ileum smooth muscle homogenate, 3H-NMS 0.3 nM, 20 minutes at 30° C., pH 7.5, read-out: IC50 3H-NMS (M2)
[5] = rat hippocampus homogenate, 3H-PZ 1 nM, 2 hours at 4° C., pH 7.40, read-out: IC50 3H-PZ (M1)

Compound: COC(=O)C1=CCCN(C)C1 [Arecoline, reference compound]
- Pirenzepine antagonism ED50 i.p. [1]: 1 mg/kg
- Pirenzepine antagonism ED50 p.o. [1]: 0.5 mg/kg
- IC50 [2]: 4.5 µM

Compound: O=C1CCCN1CC#CCN1CCCC1 [Oxotremorine, reference compound]
- Pirenzepine antagonism ED50 i.p. [1]: 0.005 mg/kg
- IC50 [3]: 0.24 µM
- ratio R of the IC50 values for the M1 and M2 receptors [3]: 1
- IC50 [2]: 0.2 µM

Compound: CCN(CC)CCNc1ncc(-c2ccccc2)s1.Cl.Cl [SR 44318 A, 2-[(2-Diethylaminoethyl)amino]-5-phenylthiazole dihydrochloride]
- Pirenzepine antagonism ED50 i.p. [1]: 1.5 mg/kg
- Pirenzepine antagonism ED50 p.o. [1]: 3 mg/kg
- IC50 ([3]; read-out: IC50 3H-PZ (M1)): 3.4 µM
- ratio R of the IC50 values for the M1 and M2 receptors [3]: 11
- IC50 [2, 4]: 38 µM

Compound: CCN(CC)CCNc1nc2c(s1)CCCc1ccccc1-2 [SR 44323 A]
- Pirenzepine antagonism ED50 i.p. [1]: 10 mg/kg
- IC50 [3, 5]: 1.7 µM
- ratio R of the IC50 values for the M1 and M2 receptors [3]: 5
- IC50 [2, 4]: 8.5 µM

Compound: CCN(CC)CCCNc1nc2c(s1)CCCc1ccccc1-2 [SR 44326 A]
- Pirenzepine antagonism ED50 i.p. [1]: 3 mg/kg
- IC50 [3, 5]: 2.2 µM
- ratio R of the IC50 values for the M1 and M2 receptors [3]: > 45
- IC50 [2, 4]: > 100 µM

Compound: CN(C)CCCNc1nc2c(s1)CCCc1ccccc1-2 [SR 44327 A]
- Pirenzepine antagonism ED50 i.p. [1]: 10 mg/kg
- IC50 [3, 5]: 1.9 µM
- ratio R of the IC50 values for the M1 and M2 receptors [3]: 20
- IC50 [2, 4]: 38 µM

Compound: CCN(CC)CCCNc1ncc(-c2ccccc2)s1 [SR 44346 A]
- Pirenzepine antagonism ED50 i.p. [1]: 1 mg/kg
- IC50 [3, 5]: 2 µM
- ratio R of the IC50 values for the M1 and M2 receptors [3]: 12.5
- IC50 [2, 4]: 25 µM

Compound: CCN(CC)CCNc1nc2c(s1)CCc1ccccc1-2 [SR 44393 A]
- Pirenzepine antagonism ED50 i.p. [1]: 3 mg/kg
- IC50 [3, 5]: 2.7 µM
- ratio R of the IC50 values for the M1 and M2 receptors [3]: 15
- IC50 [2, 4]: 42 µM

Compound: CCN(CC)CCNc1nc2c(s1)CCCc1ccc([N+](=O)[O-])cc1-2.Cl.Cl [SR 44411 A, 2-[(2-Diethylaminoethyl)amino]-9-nitro-5,6-dihydro-4H-benzo[6,7]cyclohepta[1,2-d]thi azole dihydrochloride]
- Pirenzepine antagonism ED50 i.p. [1]: 15 mg/kg
- IC50 ([3]; read-out: IC50 3H-PZ (M1)): 0.9 µM
- ratio R of the IC50 values for the M1 and M2 receptors [3]: 7
- IC50 [2, 4]: 6.7 µM

Compound: Cc1cc(C)c(-c2csc(NCCCN(C)C)n2)c(C)c1 [SR 44421 A]
- Pirenzepine antagonism ED50 p.o. [1]: 0.2 mg/kg
- IC50 [3, 5]: 3.6 µM
- ratio R of the IC50 values for the M1 and M2 receptors [3]: > 27
- IC50 [2, 4]: > 100 µM

Compound: CCN(CC)CCCNc1nc(-c2ccccc2)c(-c2ccccc2)s1 [SR 44435 A]
- Pirenzepine antagonism ED50 i.p. [1]: 2 mg/kg
- IC50 [3, 5]: 0.36 µM
- ratio R of the IC50 values for the M1 and M2 receptors [3]: 8
- IC50 [2, 4]: 3 µM

Compound: Cc1nc(NCCCN(C)C)sc1-c1ccccc1 [SR 44467 A]
- Pirenzepine antagonism ED50 p.o. [1]: 3 mg/kg
- IC50 [3, 5]: 1.5 µM
- ratio R of the IC50 values for the M1 and M2 receptors [3]: 25
- IC50 [2, 4]: 38 µM

Compound: CN(C)CCCNc1nc(-c2ccc(Cl)cc2)cs1 [SR 44493 A]
- Pirenzepine antagonism ED50 p.o. [1]: 0.3 mg/kg
- IC50 [3, 5]: 1.6 µM
- ratio R of the IC50 values for the M1 and M2 receptors [3]: 28
- IC50 [2, 4]: 45 µM

Compound: CN(C)CCCNc1nc(-c2ccc(F)cc2)cs1 [SR 44494 A]
- Pirenzepine antagonism ED50 p.o. [1]: 2 mg/kg
- IC50 [3, 5]: 0.8 µM
- ratio R of the IC50 values for the M1 and M2 receptors [3]: 100
- IC50 [2, 4]: 80 µM

Compound: Cc1sc(NCCCN)nc1-c1ccccc1.Cl.Cl [SR 44514 A, 2-[(3-Aminopropyl)amino]-5-methyl-4-phenylthiazole dihydrochloride]
- Pirenzepine antagonism ED50 i.p. [1]: 3 mg/kg
- IC50 ([3]; read-out: IC50 3H-PZ (M1)): 0.5 µM
- ratio R of the IC50 values for the M1 and M2 receptors [3]: > 200
- IC50 [2, 4]: > 100 µM

Compound: CCN(CC)CCCNc1nc(-c2ccc3ccccc3c2)cs1 [SR 44573 A]
- Pirenzepine antagonism ED50 p.o. [1]: 2.50 mg/kg
- IC50 [3, 5]: 1.8 µM
- ratio R of the IC50 values for the M1 and M2 receptors [3]: 7
- IC50 [2, 4]: 13 µM

Compound: CN(C)CCCNc1nc(-c2ccc(Cl)cc2Cl)cs1 [SR 44749 A]
- Pirenzepine antagonism ED50 p.o. [1]: 3 mg/kg
- IC50 [3, 5]: 1.8 µM
- ratio R of the IC50 values for the M1 and M2 receptors [3]: 14
- IC50 [2, 4]: 26 µM
